Broadly, the EC50 is the concentration needed to bring the measured effect to its halfway point.

This passage reports EC50 results from ChEMBL document CHEMBL1629620 (Antimicrob Agents Chemother, 2009).

This assay deals with Vaccinia virus. Description: Antiviral activity against J2R gene deficient Vaccinia virus harboring VVTK::luc infected in HFF assessed as reduction of plaque formation after 3 days. Format: functional, organism-based. The conditions noted are these: Orthopoxvirus vaccinia, 72 h.

Each structure is given as a SMILES string.

`O=c1[nH]c(=O)n([C@H]2C[C@H](O)[C@@H](CO)O2)cc1I` [IDOXURIDINE]: the EC50 is 7.1 µM.
For the molecule `Nc1ccn(C[C@@H](CO)OCP(=O)(O)O)c(=O)n1.O.O` [CIDOFOVIR], the EC50 stood at 9.4 µM.
Regarding `O=c1[nH]c(=O)n([C@H]2C[C@H](O)[C@@H](CO)S2)cc1I`, the EC50 worked out at 0.3 µM.
